Assay: in vitro
Settings: human, hela cells, % viability

Row | SMILES | viability at 28.5 h, 10 µM [%]
1 | NS(=O)(=O)c1ccc2c(c1)N(Cc1nc(-c3ccco3)no1)CC2 [CBK304291] | 71.9
2 | Cn1cc(CNCC2CCN(c3ccccc3)C2)c(-c2cccnc2)n1 (centres unmarked) [CBK304155] | 95.7
3 | CCCc1ccc(S(=O)(=O)N2CCOC(c3cnn(CC)c3)C2)cc1 (centres unmarked) [CBK306169] | 83.4
4 | NC(=O)c1cccc(-n2cc(-c3ccsc3)nn2)c1 [CBK113076] | 86.4
5 | COc1ccc(-c2cncc(N[C@@H](CO)C(C)C)n2)cc1 [CBK037941] | 82.8
6 | Cc1cc(N2CCCC(COc3ccccc3F)C2)nc(N)n1 (centres unmarked) [CBK306714] | 74.4
7 | CCN(CC)CCN(CCc1ccc(OC)c(OC)c1)C(=O)Nc1ccc(Cl)cc1 [CBK160510] | 96.6
8 | O=C(c1ccco1)N1CCN(c2ncccn2)CC1 [CBK144524] | 111
9 | Nc1ncnc2c1nc1n2[C@H]2C[C@@H](O)[C@H](O2)[C@H]1O [CBK201183] | 96.2
10 | CN(C)CC(C)(C)CN1C2CCC1CC(O)(c1ccccc1F)C2 (centres unmarked) [CBK282648] | 94.4
11 | CCN(CC)C(=O)NC(c1ccccc1OC)c1nccn1C (centres unmarked) [CBK283803] | 80.8
12 | Cc1ccccc1CNCCNCC(C)O (centres unmarked) [CBK268718C] | 95.9
13 | C=Cn1ncc(CN(CCCN(C)C)Cc2ccco2)c1C [CBK283228] | 96.8
14 | CC(=O)N1CCc2nc(CC3CC3)nc(NCCn3ccnn3)c2CC1 [CBK306933] | 94.7
15 | Cc1nc(-c2ccccc2)sc1CNC(=O)CCc1c[nH]c2ccccc12 [CBK092373] | 106
16 | CCOC(=O)C1CCCN(CCC(=O)Nc2cc(C)cc(C)c2)C1 (centres unmarked) [CBK264284] | 100
17 | CN(C)CCN1CCN(c2nc(-c3ccc4c(c3)OCO4)cnc2N)CC1 [CBK063495] | 93.9
18 | CN(CCN1CCCCC1)C(=O)Cn1ccnc1-c1ccccc1 [CBK281900] | 91.3
19 | CS(=O)(=O)c1ccc(Cn2ccnc(OC3CCN(C(=O)c4ccc(C#N)cc4)CC3)c2=O)cc1 [CBK161804] | 92.4
20 | CCn1c(SCC(=O)N2CCN(c3ccccc3)CC2)nnc1-c1ccc(N)cc1 [CBK265786] | 103
21 | CC1CCN(Cc2ccc(-c3cn(CC(=O)NCc4ccc(OC(F)(F)F)c(F)c4)nn3)cc2)CC1 [CBK167536] | 87.3
22 | CSc1nnc(SCC(=O)N2CCC(C(F)(F)F)CC2)s1 [CBK057829] | 111

Row | SMILES | viability at 28.5 h, 10 µM [%]
23 | O=C1Nc2ccc(C(=O)NCC(O)CO)cc2/C1=C/c1c[nH]c2ncccc12 (centres unmarked) [CBK115363C] | 95.3
24 | CC(=O)OC(C(=O)O)C(OC(C)=O)C(=O)O (centres unmarked) [CBK261063] | 95.5
25 | Cc1nccn1-c1ccc(NC(=O)C2CC(=O)N(C3CCCC3)C2)cc1F (centres unmarked) [CBK298286] | 83.1
26 | Cc1ccc(C(=O)NCCc2nnc3ccc(Cl)nn23)cc1 [CBK287636] | 89.5
27 | CCCS(=O)(=O)c1ccc(NC(=O)Nc2ccc(Cl)cc2Cl)cc1 [CBK008564] | 76.1
28 | COc1ccccc1N1CCN(C(=O)CCCC(=O)O)CC1 [CBK286904] | 80.8
29 | CC1CCN(c2ccc(C(C)NC(=O)Cn3cccn3)cc2)CC1 (centres unmarked) [CBK281725] | 86.1
30 | O=C(O)C[C@]1(C(=O)NC2CCCCCC2)CC(/C=C/c2ccccc2)=NO1 [CBK286732] | 75.9
31 | CN(C)S(=O)(=O)c1c(Cl)cccc1Cl [CBK091643] | 84
32 | O=C(Nc1ccc(S(=O)(=O)Nc2nccc(/C=C/c3ccc(Cl)cc3)n2)cc1)c1ccc(Br)cc1 [CBK263500] | 103
33 | CN(CC#CCN1CCCC1)C(=O)CNC(=O)OC(C)(C)C [CBK007489] | 111
34 | CCCCCC1/C(=N\O)CCC1CC(=O)OC (centres unmarked) [CBK019978] | 93.9
35 | COC(=O)C1CCN(Cc2nc3sc4c(c3c(=O)[nH]2)CCC(C)C4)CC1 (centres unmarked) [CBK304978] | 99.2
36 | O=S(=O)(NC1CCCCC1n1cc(-c2ccccc2)nn1)c1ccc(Cl)cc1 (centres unmarked) [CBK266391] | 99
37 | COc1cc(S(=O)(=O)NCCCn2ccnc2)ccc1Cl [CBK269186] | 89.1
38 | Cc1ccc(S(=O)(=O)N(CC(=O)O)c2ccc(Br)cc2)cc1 [CBK287125] | 95.3
39 | COc1ccccc1NC(=O)N1C[C@@H]2C[C@H](C1)c1c(-c3cccs3)ccc(=O)n1C2 [CBK289191] | 107
40 | CCOC(=O)N1CCC(NS(=O)(=O)c2cccc3cccnc23)CC1 [CBK045453] | 90.6
41 | CCn1c(CN2CCCC2c2nc(N(C)C)ncc2-c2cccc(F)c2)nc2ccccc21 (centres unmarked) [CBK286500] | 102
42 | O=S(=O)(c1ccc2ccccc2c1)N1CCN(CCCOc2ccccc2Cl)CC1 [CBK267018] | 106
43 | O=C(NC1CCCCCC1)c1[nH]nc(O)c1Cc1c(Cl)cccc1Cl [CBK107847] | 91.9
44 | O=C(NCC1CCCO1)c1cc(S(=O)(=O)N2CCOCC2)c(Cl)cc1Cl (centres unmarked) [CBK269691] | 90.3

Row | SMILES | viability at 28.5 h, 10 µM [%]
45 | Cc1noc(C)c1C(=O)N1CCC[C@@H](C(=O)c2ccccc2F)C1 [CBK282249] | 90.5
46 | c1coc(-c2nc3cnccn3c2NC2CCCC2)c1 [CBK283678] | 90.6
47 | O=C(Cc1ccccc1)N1CCc2c([nH]c3ccccc23)C12CCNC2 (centres unmarked) [CBK059461] | 98.9
48 | CC(=O)Nc1ccc(-c2ccc3n(c2=O)C[C@H]2C[C@@H]3CN(C(=O)C3CCCCC3)C2)cc1 [CBK289188] | 84.6
49 | COc1cc(C(=O)NC/C=N/O)cc(OC)c1OC [CBK015662] | 90
50 | CC(C)(C)C(=O)N1CCC2(CC1)Nc1cccnc1-n1cccc12 [CBK284507] | 95.6
51 | O=c1cc(NCc2ccncc2)c2ccccc2o1 [CBK017259] | 93.5
52 | CCOC(=O)N1CCN(S(=O)(=O)c2cc(C(=O)O)c(Cl)cc2Cl)CC1 [CBK296975] | 96.2
53 | N#Cc1nc(=O)[nH]cc1N [CBK021411] | 90.8
54 | N#Cc1ccc(CNC2(Cc3cc(C(=O)N4CCCCC4)on3)COC2)cc1 [CBK289672] | 87
55 | N#Cc1ccc(-n2nc(-c3ccccc3)c3ccccc3c2=O)c([N+](=O)[O-])c1 [CBK132567] | 96.6
56 | Cc1cccc(C)c1N1C(=O)c2ccccc2NC12C(=O)Nc1ccc([N+](=O)[O-])cc12 (centres unmarked) [CBK103749] | 80.6
57 | COc1ccccc1C(=O)N1CCN(c2nc3c(s2)c(C)nn3C)CC1 [CBK306836] | 86.6
58 | Cc1c(C(=O)O)sc2ncn(CCOc3ccc(Cl)cc3)c(=O)c12 [CBK286808] | 88.5
59 | Cc1cccc([C@@H]2CN(Cc3ccccc3)C[C@]23CCCCC(=O)N3)n1 [CBK283341] | 97.1
60 | Cc1nc(C(F)(F)F)ccc1C(=O)N1C=CC(C(F)(F)F)=NCC1 [CBK057187] | 113
61 | O=C(c1ccc(F)cc1)C1CCN(CC(O)COc2cccc3c2CCCC3)CC1 (centres unmarked) [CBK003583] | 101
62 | Cn1c(=O)c2c(ncn2CCCN)n(C)c1=O [CBK267707C] | 91.8
63 | COc1ccc(CC(=O)NC2CC(C)(C)Cc3c2cnn3C)cc1 (centres unmarked) [CBK282886] | 99
64 | COCCOC(=O)N1CCC(C(=O)NC(c2ccc(Cl)cc2)c2cccs2)CC1 (centres unmarked) [CBK059702] | 104
65 | Oc1cc2nnnn2nc1-c1ccccc1 [CBK019550] | 101
66 | O=C(N/N=C/c1c[nH]c2ccc(Br)cc12)c1ccncc1 [CBK262798] | 116

Row | SMILES | viability at 28.5 h, 10 µM [%]
67 | CCN1CCN(S(=O)(=O)c2cccc([N+](=O)[O-])c2)CC1 [CBK266675] | 83.8
68 | CCN1CCN(CC(=O)C(C#N)c2ccccc2)CC1 (centres unmarked) [CBK269423] | 92.8
69 | Cc1cc(C)cc(C(=O)N2CCCC(C(=O)N3CCN(c4nccs4)CC3)C2)c1 (centres unmarked) [CBK298307] | 95.1
70 | CCOC(=O)c1c(NC(=O)C2CCCCC2C(=O)O)sc(C)c1C (centres unmarked) [CBK265469] | 99.2
71 | Cc1noc(C)c1CN(C)C(=O)NC1CCCc2c1cnn2CCO (centres unmarked) [CBK306283] | 92.5
72 | CN1CCN(C(=O)c2nc(SCc3ccccc3)ncc2Cl)CC1 [CBK269003] | 86.7
73 | COCCNC(=O)C1CCN(c2nc3c(-c4cccc(C)c4)csc3c(=O)[nH]2)CC1 [CBK215629] | 93.1
74 | CCCS(=O)(=O)n1ccn(-c2cccc(C(F)(F)F)c2)c1=O [CBK106585] | 88.3
75 | COc1ccc(C=CC(=O)N(C)c2ccccc2C(=O)O)cc1 [CBK296135] | 106
76 | O=c1[nH]c2ncc(-c3ccco3)nc2n1Cc1cccs1 [CBK064438] | 103
77 | O=C(c1cc(F)c(F)cc1F)N1CCC2(CCCN(Cc3ccc4ccccc4c3)C2)C1 (centres unmarked) [CBK131998] | 97.8
78 | O=[N+]([O-])c1ccc(CN2CCN(Cc3cc(Br)ccc3O)CC2)cc1 [CBK263652G] | 88.9
79 | CSc1nnc(CC2CCN(C(=O)c3cccc(N)c3)CC2)n1C [CBK307339] | 77.8
80 | COc1ccc(CCCC(=O)N2CCN(c3ccccc3OC)CC2)cc1OC [CBK091495] | 87.1
81 | Cc1cccc(C)c1OCC(=O)NC(C)C(=O)O (centres unmarked) [CBK287185] | 86.8
82 | CS(=O)(=O)N(Cc1ccc(Cl)cc1)c1ccc(C(=O)Nc2ccccc2C(=O)O)cc1 [CBK264093] | 105
83 | Cc1ccn(CCC(=O)N2CCCC(c3cc4cccnc4[nH]3)C2)n1 (centres unmarked) [CBK284927] | 99.7
84 | CCOC(=O)COc1ccc2c(=O)c(Oc3ccc([N+](=O)[O-])cc3)c(C)oc2c1C [CBK266092] | 96.6
85 | O=C(Nc1cccc2cc[nH]c12)c1cccc(F)c1Cl [CBK160074] | 99.8
86 | CC(C)N1CCCC2(CCN(C(=O)Cc3c[nH]c(=O)n(C)c3=O)C2)C1=O (centres unmarked) [CBK307115] | 87.8
87 | CC(Sc1nc2ccccc2[nH]1)C(=O)Nc1ccc(S(N)(=O)=O)cc1 (centres unmarked) [CBK266128] | 114
88 | Cc1nc(C)n(C(C)CNC(=O)Cn2ccc3ccc(F)cc32)n1 (centres unmarked) [CBK282612] | 95.5

Same assay, conditions: human, hela cells, % viability, bulk resorufin, single well

Row | SMILES | viability at 28.5 h, 10 µM [%]
89 | COc1ccc(O)c(CN2CCN(Cc3ccc(Cl)cc3)CC2)c1 [CBK263660] | 110

— paper PMC12040169 (PLOS Biology, 2025)
